The source of these data is patent publication US20240398728A1, “STERILE TOPICAL SALINE PUTRESCINE FORMULATION AND USES THEREOF” (VIVIER CANADA INC., priority 2018, published 2024).

A short description of data set [1]: Solubility of ingredients in water noted during manufacturing. Format: physicochemical. As to conditions: noted by Applicant during manufacturing.
Excerpt: (§1) As such, a first heating step (to about 40 degrees Celsius) while stirring, together with the sequential addition of Allantoin followed by HPMC allowed to improve the manufacturing procedure. Propanediol was also shown to help solubilization of active ingredients in the mixture. […] Once applied on the skin, the alcohol rapidly evaporates and promotes adherence of the film forming agent (e.g., PVP) on the skin. The presence of alcohol also promotes evaporation of water. Finally, because the presence of sodium salt (saline) could interfere with active ingredients in the formulation, it is preferentially added at the end of the process.
as §1, with “the PVP (which forms a film)” for “the film forming agent (e.g., PVP)”, “also promoted” for “also promotes”, “it was” for “it is”, “process. […]” for “process.”

Data set [2] addresses fibroblast tissue transglutaminase (Homo sapiens, UniProt P21980). As to conditions: in vitro and in vivo, topical, compared to controls; cited from earlier work.
Another data set deals with epidermis of eroded skin. As to conditions: topical; animals and human epidermis; cited from earlier work.

Chain of fibroblast tissue transglutaminase (P21980 whole entry): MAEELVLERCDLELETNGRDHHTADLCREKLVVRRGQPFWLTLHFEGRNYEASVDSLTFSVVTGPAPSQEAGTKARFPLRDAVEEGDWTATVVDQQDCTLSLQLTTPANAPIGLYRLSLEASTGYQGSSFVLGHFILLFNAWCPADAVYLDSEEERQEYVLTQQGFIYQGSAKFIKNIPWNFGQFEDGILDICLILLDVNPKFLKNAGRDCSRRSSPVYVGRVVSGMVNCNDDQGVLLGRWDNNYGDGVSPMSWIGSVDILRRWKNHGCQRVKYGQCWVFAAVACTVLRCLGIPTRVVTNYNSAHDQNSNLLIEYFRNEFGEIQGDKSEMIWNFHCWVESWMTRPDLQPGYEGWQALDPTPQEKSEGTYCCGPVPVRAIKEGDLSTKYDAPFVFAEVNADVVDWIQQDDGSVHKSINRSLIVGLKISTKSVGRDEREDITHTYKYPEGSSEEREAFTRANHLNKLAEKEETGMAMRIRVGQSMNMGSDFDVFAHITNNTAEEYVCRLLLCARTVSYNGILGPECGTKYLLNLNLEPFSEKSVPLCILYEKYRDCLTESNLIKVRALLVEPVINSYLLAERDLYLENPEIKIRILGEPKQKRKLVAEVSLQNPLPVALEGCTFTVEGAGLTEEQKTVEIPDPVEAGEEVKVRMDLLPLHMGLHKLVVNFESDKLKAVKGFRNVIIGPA

As for Alpha Bisabolol, the solubility in water entry in data set [1] was “not to be very soluble in water”.
Regarding `NCCCCN` [putrescine, 1,4-diaminobutane], the collagen cross-linking result in data set [2] was “reduce collagen cross-linking in vitro and in vivo”. For the same compound, the “effect on the epidermis of eroded skin (barrier function, thickness of the stratum lucidum)” value with epidermis of eroded skin is listed as “increasing its barrier function as well as the thickness of the stratum lucidum”.
For `NC(=O)NC1NC(=O)NC1=O` (stereo not shown) [Allantoin], the solubility in water entry in data set [1] was “not very soluble in water”.
